Data published in patent US11555006B2, “Elucidation of novel 13-series resolvins that increase with atorvastatin and clear infections” (The Brigham and Women's Hospital, Inc., priority 2015, dated 2023).

Columns and labels:
human macrophages [1] = test: Human macrophage caspase 1, IL-1β and lactate dehydrogenase; format: cell-based; settings: for In vitro: E. coli induced inflammasome components in human macrophages / In vitro: E. coli induced macrophage pyroptosis: summary table of bioactions
Experimental: Human macrophages (1.5×10^4 cells/well) were incubated with RvT1 (10 pM-10 nM), 1:1 mixture RvT2 and RvT3 (10 pM-10 nM), RvT4 (10 pM-10 nM) or vehicle (0.1% EtOH in DPBS, 15 min, 37° C.), then E. coli (7.5×10^5 cells/well, in DPBS, 16 h, 37° C.). Caspase 1 levels were assessed in macrophages by flow cytometry after cell fixing and permeabilization, staining with an anti-caspase 1 (Abcam; 4° C., 30 min) and anti-rabbit-Alexa 488 conjugated antibody (Molecular Probes; 4° C., 30 min). IL-1β levels were determined in cell-free supernatants using an anti-human IL-1β ELISA (eBiosciences) following manufacturer's instructions. Lactate dehydrogenase activity was measured in cell-free supernatants assessing the formation of NADH from NAD+ using a Lactate Dehydrogenase Assay kit (Sigma) following manufacturer's instructions.

human macrophages [2] = test: Human macrophage phagocytosis, ROS and efferocytosis; format: cell-based; settings: for In vitro: human macrophage efferocytosis of apoptotic neutrophils: summary table of bioactions; for In vitro: human macrophage and neutrophil intra-phagolysosomal ROS production / In vitro: human macrophage and neutrophil phagocytosis of E. coli: summary table, macrophages and neutrophils
Experimental: Macrophages were prepared from peripheral blood mononuclear cells (PBMC) purchased from Children's Hospital Blood Bank, Boston, and phagocytosis was assessed as in^31. Briefly, macrophages (5×10^4 cells/well) were incubated with RvT1 (1 pM-10 nM), 1:1 mixture RvT2 and RvT3 (1 pM-10 nM), RvT4 (1 pM-10 nM) or vehicle (0.1% EtOH in DPBS) for 15 min at 37° C., then fluorescent labeled apoptotic cells were added and cells incubated 45 min at 37° C. Extracellular fluorescence was quenched using Trypan blue (1:15 dilution) and phagocytosis assessed using an M3 SpectraMax plate reader (Molecular Devices). In select experiments, macrophages (prepared as detailed above, 5×10^4 cells/well) or neutrophils (1×10^5 cells/well), obtained from human healthy volunteers and isolated as in ^31 in accordance with Partners Human Research Committee Protocol (number 1999P001297), were incubated with H2DCFDA (5 μM, 30 min, 37° C.), excess dye was washed off and cells incubated with RvT1 (1 pM-10 nM), 1:1 mixture RvT2 and RvT3 (1 pM-10 nM), RvT4 (1 pM-10 nM) or vehicle (0.1% EtOH in DPBS, 15 min, 37° C.), then incubated with E. coli (1:50 leukocytes to E. coli, 45 min, 37° C.). Intracellular reactive oxygen species were determined by measuring fluorescence using an M3 SpectraMax plate reader. To assess bacterial phagocytosis, macrophages (5×10^4 cells/well) or neutrophils (1×10^5 cells/well) were incubated with RvT1 (1 pM-10 nM), 1:1 mixture RvT2 and RvT3 (1 pM-10 nM), RvT4 (1 pM-10 nM) or vehicle (0.1% EtOH in DPBS, 15 min, 37° C.), then incubated with BacLight Green (Molecular Probes) labeled E. coli (1:50 leukocytes to E. coli, 45 min, 37° C.). Extracellular fluorescence was then quenched using Trypan blue (1:15 dilution), and phagocytosis was assessed using an M3 SpectraMax plate reader.

[3] = tested on: E. coli infections in mice; test: E. coli peritonitis in mice; format: in vivo; settings: for In vivo: circulating platelet-leukocyte aggregates / In vivo: exudate pro-inflammatory eicosanoid levels during infections / In vivo: infection induced hypothermia / In vivo: macrophage efferocytosis of apoptotic neutrophils / In vivo: murine leukocyte phagocytosis of E. coli / In vivo: neutrophil recruitment during infections / In vivo: protective actions of atorvastatin in infections / In vivo: pyroptosis: summary table of bioactions
Experimental: All animal experiments were conducted in accordance with the Harvard Medical Area Standing Committee on Animals (protocol no. 02570). Mice (male FvB, 6-8 weeks old, Charles River, fed lab diet containing essential fatty acids as from supplier) were anesthetized with isoflurane and microbial peritonitis initiated. Briefly, test compounds or vehicle were injected i.p. or i.v. 5 min prior to live E. coli (serotype 06:K2:H1; 1×10^5 or 1×10^7 CFU/mouse). At designated time intervals mice were harvested, blood was collected via cardiac puncture in heparin, and peritoneal exudates were collected in 4 ml of PBS. The cellular composition in the exudates was determined using Turks solution and light microscopy, and by flow cytometry. For flow cytometry, exudate cells were incubated with anti-mouse CD16/CD32 (eBiosciences, 20 min, 4° C., in PBS containing 5% fetal calf serum-staining solution), followed by incubation with FITC-conjugated anti-mouse Ly6G antibody (clone: 1A8, eBiosciences), PE-conjugated anti-mouse F4/80 antibody (clone:BM8, eBiosciences) and PerCP-Cy5.5-conjugated anti-mouse CD11b antibody (clone:M1/70, eBiosciences) for 30 min (4° C., in staining solution). To assess bacterial phagocytosis in peritoneal exudate leukocytes, exudate cells were incubated with PerCP-Cy5.5-conjugated anti-mouse CD11b antibody (30 min, 4° C., in staining solution), then fixed and permeabilized using BD Perm/Wash™ Buffer (BD Biosciences) following manufacturer's instructions and incubated with FITC-conjugated anti-E. coli antibody (GenTex, 30 min, 4° C., in BD Perm/Wash™ Buffer). Efferocytosis in infectious exudates was assessed by incubating exudate leukocytes with PE-conjugated anti-mouse F4/80 antibody (30 min, 4° C., in staining solution), then fixed and permeabilized using BD Perm/Wash™ Buffer (BD Biosciences) and incubated with FITC-conjugated anti-mouse Ly6G antibody (30 min, 4° C., in BD Perm/Wash™ Buffer). Body temperatures were assessed using an Infrared thermometer (Fluke). Bacterial counts in peripheral blood and inflammatory exudates were determined by overnight cultures (37° C.) of serially diluted samples on LB agar plates. Caspase 1 levels were assessed by incubation of exudate cells with PerCP-Cy5.5-conjugated anti-mouse CD11b antibody (30 min, 4° C., in staining solution), then fixed and permeabilized using BD Perm/Wash™ Buffer (BD Biosciences), incubated with anti-caspase 1 antibody (Abcam, 30 min, 4° C., in BD Perm/Wash™ Buffer) followed by anti-rabbit Alexa 488 conjugated antibody (Life Technologies, 30 min, 4° C., in BD Perm/Wash™ Buffer). IL-1β levels were determined in cell-free supernatants using an anti-mouse IL-1β ELISA (Abcam) following manufacturer's instructions. Lactate dehydrogenase activity was measured in cell-free supernatants assessing the formation of NADH from NAD+ using a Lactate Dehydrogenase Assay kit (Sigma) following manufacturer's instructions.
In select experiments resolution indices were calculated as in ^27. Ψmax, maximal PMN numbers in exudates; Tmax, time point when PMN numbers reach maximum; R50, 50% of maximal PMN numbers; T50, time point when PMN numbers reduce to 50% of maximum; Ri (resolution interval), T50-Tmax, time period when 50% PMN are lost from the exudates. To assess the proresolving actions of the test products, these were administered 12 h after E. coli (10^5 CFU) inoculation, and resolution indices were assessed.
For some experiments, mice were administered via i.p. injection RvT1, RvT2, RvT3 and RvT4 (that were isolated as detailed below and combined as a mixture at a ratio of 2:1:1:8 respectively) 2 h after E. coli inoculation. Blood and lungs were harvested 6 h after E. Coli inoculation. Blood was employed to determine peripheral blood eicosanoid levels as detailed below.

human neutrophils = test: Human neutrophil phagocytosis and ROS; format: cell-based; settings: 1 pM-1.0 nM, n=4 donors
Experimental: Macrophages were prepared from peripheral blood mononuclear cells (PBMC) purchased from Children's Hospital Blood Bank, Boston, and phagocytosis was assessed as in^31. Briefly, macrophages (5×10^4 cells/well) were incubated with RvT1 (1 pM-10 nM), 1:1 mixture RvT2 and RvT3 (1 pM-10 nM), RvT4 (1 pM-10 nM) or vehicle (0.1% EtOH in DPBS) for 15 min at 37° C., then fluorescent labeled apoptotic cells were added and cells incubated 45 min at 37° C. Extracellular fluorescence was quenched using Trypan blue (1:15 dilution) and phagocytosis assessed using an M3 SpectraMax plate reader (Molecular Devices). […] Intracellular reactive oxygen species were determined by measuring fluorescence using an M3 SpectraMax plate reader. […] Extracellular fluorescence was then quenched using Trypan blue (1:15 dilution), and phagocytosis was assessed using an M3 SpectraMax plate reader.

[4] = tested on: human neutrophil-endothelial cell co-incubations; test: Lipid mediator levels in human endothelial cell incubations and neutrophil-endothelial cell co-incubations; format: cell-based; settings: atorvastatin 0.03-30 μM
Experimental: Prior to sample extraction, deuterated internal standards (d4-PGE2, d5-LXA4, d4-RvD2, d4-LTB4 and d8-5S-HETE) representing regions of interest in the chromatographic analysis (500 pg each) were added to facilitate quantification. Extracted samples were analyzed by a LC-MS-MS system, Qtrap 6500 (AB Sciex) equipped with a Shimadzu SIL-20AC autoinjector and LC-20AD binary pump (Shimadzu Corp.). An Agilent Eclipse Plus C18 column (100×4.6 mm×1.8 μm) was used with a gradient of methanol/water/acetic acid of 55:45:0.01 (vol:vol:vol) that was ramped to 85:15:0.01 (vol:vol:vol) over 10 min and then to 98:2:0.01 (vol:vol:vol) for the next 8 min. This was subsequently maintained at 98:2:0.01 (vol:vol:vol) for 2 min. The flow rate was maintained at 0.4 ml/min. To monitor and quantify the levels of lipid mediators, a multiple reaction monitoring (MRM) method was developed with signature ion fragments (m/z) for each molecule monitoring the parent ion (Q1) and a characteristic daughter ion (Q3). […] Calibration curves were determined using a mixture of lipid mediators obtained via total organic synthesis, where these lipid mediators were not available (RvT1, RvT2, RvT3, RvT4 and 13-HDPA); known mediators with similar chromatographic properties (RvD2 for RvT1, RvD1 for RvT2 and RvT3; RvD5 for RvT4; 13-HDHA for 13-HDPA) were used. […]

nitric oxide synthase = test: L-NAME and atorvastatin in E. coli inoculated mice, plasma RvT; format: in vivo
Experimental: In a separate set of experiments, mice were inoculated with E. coli; after 60 min they were given L-NAME (24 mg/kg) and 5 min later atorvastatin (5 μg) via i.v. injection. Plasma was obtained after 5 h via cardiac puncture and LM levels were investigated by lipid mediator metabololipidomics. For all animal experiments mice were randomized to vehicle or treatment groups without blinding.

Compound	In vitro: E. coli induced inflammasome components in human macrophages (human macrophages [1])	In vitro: E. coli induced macrophage pyroptosis (human macrophages [1])	In vitro: human macrophage efferocytosis of apoptotic neutrophils (human macrophages [2])	In vitro: human macrophage and neutrophil intra-phagolysosomal ROS production (human macrophages [2])	In vitro: human macrophage and neutrophil phagocytosis of E. coli (human macrophages [2])	In vivo: circulating platelet-leukocyte aggregates [3]	In vivo: exudate pro-inflammatory eicosanoid levels during infections [3]	In vivo: infection induced hypothermia [3]	In vivo: macrophage efferocytosis of apoptotic neutrophils [3]	In vivo: murine leukocyte phagocytosis of E. coli [3]	In vivo: neutrophil recruitment during infections [3]	In vivo: protective actions of atorvastatin in infections [3]	In vivo: pyroptosis [3]	also measured
CCC(O)/C=C/C=C\C=C\C(O)C/C=C\C=C\C(O)CCCCCC(=O)O (centres unmarked) [RvT1, 7,13,20-trihydroxy-docosapentaenoic acid]	Reduces E. coli induced	Reduces E. coli induced	Stimulates human	Stimulates human	Stimulates human	Reduces circulating platelet-	Reduces exudate pro-	Protects against infection	Stimulates macrophage	Stimulates murine leukocyte	Limits neutrophil recruitment	Elaborates the protective	Reduces pyroptosis	IL-1β expression, human macrophages (human macrophages [1]; 10 pM-10 nM, E. coli 16 h): decreasing; caspase-1 expression, human macrophages (human macrophages [1]; 10 pM-10 nM, E. coli 16 h): decreasing; extracellular lactate dehydrogenase activity, human macrophages (human macrophages [1]; 10 pM-10 nM, E. coli 16 h): decreasing; E. coli phagocytosis in human macrophages (human macrophages [2]; 1 pM-10 nM): dose-dependently increased; efferocytosis of apoptotic neutrophils by human macrophages (human macrophages [2]; 1 pM-10 nM): dose-dependently increased; intracellular reactive oxygen species (ROS) in human macrophages (human macrophages [2]; 1 pM-10 nM): dose-dependently increased; increase in E. coli phagocytosis, human neutrophils (human neutrophils): 20-55%; increase in intracellular ROS, human neutrophils (human neutrophils): 20-40%
CC(C)c1c(C(=O)Nc2ccccc2)c(-c2ccccc2)c(-c2ccc(F)cc2)n1CC[C@@H](O)C[C@@H](O)CC(=O)O [atorvastatin]	–	–	–	–	–	–	–	–	–	–	–	–	–	RvT in neutrophil-endothelial cell co-cultures [4]: dose-dependent increases; PGI2 and 15-deoxy-Δ-12,14-PGJ2 ([3]; treatment 2 h after E. coli, blood 6 h after E. coli): increases; endothelin-1 and plasminogen activator inhibitor-1 ([3]; treatment 2 h after E. coli, lung mRNA 6 h after E. coli): reduced
CC/C=C\C/C=C\C=C\C(O)C/C=C\C=C\C(O)CCCCCC(=O)O (centres unmarked) [RvT4, 7,13-dihydroxy-docosapentaenoic acid]	Reduces E. coli induced	Reduces E. coli induced	Stimulates human	Stimulates human	Stimulates human	Reduces circulating platelet-	Reduces exudate pro-	Protects against infection	Stimulates macrophage	Stimulates murine leukocyte	Limits neutrophil recruitment	Elaborates the protective	Reduces pyroptosis	–
7,8,13-trihydroxy-docosapentaenoic [RvT2]	Reduces E. coli induced	Reduces E. coli induced	Stimulates human	Stimulates human	Stimulates human	Reduces circulating platelet -	Reduces exudate pro-	Protects against infection	Stimulates macrophage	Stimulates murine leukocyte	Limits neutrophil recruitment	Elaborates the protective	Reduces pyroptosis	–
COC(=O)[C@@H](N)CCCNC(=N)N[N+](=O)[O-] [L-NAME, L-NG-Nitroarginine Methyl Ester]	–	–	–	–	–	–	–	–	–	–	–	–	–	atorvastatin-mediated increases in plasma RvT (nitric oxide synthase; L-NAME 24 mg/kg prior to atorvastatin 5 μg/mouse i.v., E. coli 1×10^5 CFU/mouse): significantly reversed; neutrophil recruitment to the peritoneum (nitric oxide synthase; L-NAME prior to atorvastatin during mouse infections): increased
CCC=CCC=CC=CC(O)C(O)C=CC=CC(O)CCCCCC(=O)O (centres unmarked) [RvT3, 7,12,13-trihydroxy-docosapentaenoic acid]	Reduces E. coli induced	Reduces E. coli induced	Stimulates human	Stimulates human	Stimulates human	Reduces circulating platelet-	Reduces exudate pro-	Protects against infection	Stimulates macrophage	Stimulates murine leukocyte	Limits neutrophil	Elaborates the protective	Reduces pyroptosis	–
